Assay results taken from patent US7425548B2, “Materials and methods for immune system stimulation” (Variety Chidren's Hospital, priority 2004, dated 2008).
Several values for one entry are separate records, joined by “and”; a condition that tells them apart may be missing. Equal entries are not always repeated.

Columns and labels:
[1] = test system: RAW264.7 macrophages; test: Opsonized binding and phagocytosis of FITC-zymosan A bioparticles; format: cell-based, mouse; conditions: 500 μg/ml, 37° C., 1 hour
Procedure: Monocytes were incubated with RR1 at 37° C. for 1 hour followed by FITC-labeled zymosan A bioparticles for another 1 hour at 37° C. The cells were washed and intracellular fluorescence measured in a Coulter Elite Flow cytometer.
Opsonized binding and Phagocytosis. To determine the effect of RR1 and laminarin on opsonized binding and phagocytosis of zymosan A particles, RAW 264.7 cells were treated with RR1 or laminarin (0 and 500 μg/ml) in DMEM at 37° C. for 1 hour. This will ensure the release of opsonins and facilitate opsonic binding. The cells were washed with PBS twice and incubated with zymosan A-FITC bioparticles at a ratio of 25 particles/cell at 37° C. for 1 hour. The cells were suspended in PBS after removing the unbound zymosan particles by extensive washing with the medium, and the intracellular fluorescence analyzed in a Coulter Elite flow cytometer. The fluorescence intensity was expressed as percentage of control.

[2] = test system: NF-κB in RAW264.7 macrophages; test: NF-κB DNA binding activity of nuclear extracts (ELISA, EMSA); format: cell-based, mouse
Procedure: The macrophages were treated with 100 μg/ml of RR1 and NF-κB activity of the nuclear extracts analyzed at 2, 4, 8, 14, and 20 hours after incubation using ELISA protocol.
NF-κB activity increased with escalating doses of RR1, reaching a plateau at 500 μg/ml.
NF-κB activity. RAW264.7 cells were incubated with 0, 100, 500 and 1000 μg/ml of RR1 for 8 hours and the nuclear proteins were extracted using the NF-κB activity kit from Active Motif, CA according to manufacturer's ELISA instructions. To visualize the NF-κB activation further, Electrophoretic Mobility Shift Assay (EMSA) was performed (Ghosh, S, and Karin, M., Cell, 2002, 109:S81-96; Young, S. H. et al. J. Biol Chem., 2001, 276:20781-20787; Lebron, F. et al. J Biol Chem., 2003, 278:25001-25008) with the nuclear protein. A double stranded probe that binds NF-κB (5′-[…]-3′, SANTA CRUZ BIOTECHNOLOGY, Santa Cruz, Calif.) was radio labeled with ^32P-ATP, and EMSA performed with 5 μg of nuclear extract. The EMSA reaction mixtures were incubated for 30 minutes at room temperature, and DNA-protein complexes were separated on 6% polyacrylamide gels and visualized by autoradiography. […] The nuclear extracts were analyzed for the protein content, and NF-κB activity analyzed using ELISA kit from ACTIVE MOTIF, Carlsbad, Calif.

[3] = test system: normal lymphocytes; test: Oxidative stress (GSH/GSSG levels); format: cell-based, human; conditions: data not shown
[4] = test system: iNOS; test: iNOS induction immunoassay; format: cell-based, human; conditions: cytoplasmic extract of cells treated with RR1
Procedure: Inducible Nitric Oxide Synthase (iNOS) induction and Nitric oxide (NO) synthesis. Higher and long lasting release of NO is caused by the enzyme iNOS upon stimulation with […]. The iNOS induction by RR1 stimulation was assayed by QUANTIKINE iNOS immunoassay kit (R&D systems, Minneapolis, Minn.) which employs a sandwich enzyme immunoassay technique. The iNOS was assayed from the cytoplasmic extract of the cells treated with different concentrations of RR1. The samples and standards were pipetted in to the wells of the 96-well plate and any iNOS present was bound to the immobilized antibody. After washing away the unbound substances, an enzyme linked monoclonal antibody specific for iNOS was added. After washing away the unbound antibody enzyme reagent, the color developing substrate solution was added, the color development was stopped by stop solution and the absorbance was read at 450 nm with a reference wave length of 570 nm in the Bio-Rad plate reader.

[5] = test system: monocytes isolated from peripheral blood mononuclear cells; test: NO synthesis in monocytes; format: cell-based
Text: NO levels are also reported to play an important role in the modulation of Th cell differentiation and polarization. Yamasaki et al. (Yamasaki, A. et al. Yonago Acta Medica, 1998, 44:7-15) and Taylor-Robinson et al. (Taylor-Robinson, A. W. et al. Eur. J. Immunol., 1994, 24:980-984) reported an inhibitory role of NO on Th1 cytokines while Bauer et al. (Bauer, H. et al., Immunol, 1997, 90:205-211) reported the same for Th1 as well as Th2 cytokines by NO from activated T cells. […] The enzyme iNOS produced a high output of NO from macrophages upon stimulation. […] The absence of iNOS induction by RR1 supports the conclusion that there is an insignificant increase in the production of NO. […] IFN-α, IFN-γ and TNF-α are known up-regulators of NO synthesis (Shin, J. Y. et al. Immunopharmcol. Immunotoxicol., 2002, 24:469-482; Hirazumi, A. and Furusawa, E. Phytother Res., 1999, 13:380-387).

[6] = test system: normal lymphocytes; test: Quantification of cytokine and chemokine synthesis by ELISA; format: cell-based, human; conditions: at 100 pg/ml concentration
[7] = test system: TLR2, TLR4 and TLR6 mRNAs in RAW264.7 cells; test: TLR mRNA levels, RT-PCR; format: cell-based, mouse; conditions: 0-1000 μg/m RR1, 24 hours
Procedure: The cells (1×10^6) were treated with RR1 (0, 10, 100, 500 and 1000 μg/ml) at 37° C. for 24 hours in a CO2 incubator and mRNA amplified with mouse TLR specific primers.
TLR mRNA and protein levels. TLR2, 4 and 6 mRNA levels were analyzed by RT-PCR using total RNAs extracted from RR1 treated cells. Total RNA was extracted from RR1-treated and untreated RAW 264.7 cells and 0.5 μg/ml RNA was reverse transcribed and amplified using mouse TLR2, 4 and 6 specific PCR primers (R&D SYSTEMS, Minneapolis, Minn.). Mouse GAPDH gene was also amplified as a control. The PCR products were separated on agarose gel.

inhibitory effect on opsonized binding and phagocytosis of zymosan A bioparticles [1]: failed to show any significant effect | inhibitory effect on opsonized binding and phagocytosis of zymosan A bioparticles ([1]; listed as RR-1): only little inhibitory effect | time of stimulation at which NF-κB activity peaked ([2]; 100 μg/ml RR1, ELISA): 8 h | RR1 dose at which NF-κB activity reaches a plateau ([2]; 8 hours of stimulation): 500 to 1000 µg/mL and 500 µg/mL | amount of hydrogen peroxide [3]: No significant elevation
Substance: (1,4)-α-D-glucan [RR1]
induction of iNOS [4]: did not stimulate the induction of iNOS significantly | NO levels with RR1 treatment [5]: did not induce any higher levels of NO | synthesis of IL-1β [6]: 1080 pg/mL | mRNA levels of TLR2, 4 and 6 [7]: remained similar
